Assay results: patent US20250295757A1 (priority 2022, published 2025)

System: SARS-CoV-2 (WT and OTS virus) in VeroET cells
Format: cell-based

## O=c1[nH]cc(F)c(=O)[nH]1 [5-Fluorouracil]
  number of infectious virus particles in a TCID50 virus assay: reduces

## CC(C)C(=O)OC[C@H]1O[C@@H](n2ccc(NO)nc2=O)[C@H](O)[C@@H]1O [Malnupiravir]
  number of infectious virus particles in a TCID50 virus assay: reduces
